In US20110053160A1, “HCV NS3/4A REPLICON SHUTTLE VECTORS” (priority 2009, published 2011):
pIC50: −log10 of the molar value. Where two headings read alike, the source gives them in different places.

Key:
[1] = system: HCV GT-1b Con1 replicon pPI-luc/ET/SC in cured Huh7 cells; assay: Transient replicon assay, IC50 determination (firefly luciferase reporter), parent replicon; type: cell-based; conditions: Hepatitis C virus, GT1B, Huh-7, luciferase read 72 hours after addition of inhibitor, read-out: IC50 VX-950
[2] = Transient replicon assay, IC50 determination (firefly luciferase reporter), shuttle vector replicons with patient-derived NS3/4A; type: cell-based, HCV; conditions: Hepatitis C virus, Huh-7, 72 h, luciferase read 72 hours after addition of inhibitor, read-out: IC50 VX-950
Protocol: DNA sequences encoding the NS3/4A protein were generated from plasma obtained from patients infected with HCV using reverse transcription of RNA followed by PCRamplification of the reverse-transcribed product. Reverse transcription of RNA was performed using Taqman Reverse Transcription Reagents (Applied Biosystems, Foster City, Calif., USA) using the primer, 5′-ACCAGGTCCTCSGTGGAGG-3′ (SEQ ID NO:9) and according to the manufacturers' protocol. The synthesized cDNA was then PCR-amplified with the GC RICH PCR system (Roche Applied Science) to ensure high fidelity and robust yields. Annealing temperatures in the range of 50-52° C. were used depending on patient sample and primer combinations. Two PCR reactions with two independent primer sets used for the first round PCR were as follows:
Five micrograms of DNA was linearized by Sca I restriction enzyme (Roche Applied Science). After overnight digestion at 37° C., the DNA was purified using Qiagen PCR purification kit. Eight microliters of linearized DNA was used for the in vitro transcription using T7 RiboMAX Express Large Scale RNA Production System kit following manufacturer's protocol (Promega, Madison, Wis., USA). After 2 hours of incubation at 37° C., DNase treatment was performed for 20 minutes at 37° C. to remove the DNA template. In vitro transcribed RNA was then purified using RNeasy mini kit following manufacturer's protocol (Qiagen).
Cured hepatoma cell line Huh7 was obtained from R. Bartenschlager. Cells were cultured at 37° C. in a humidified atmosphere with 5% CO2 in Dulbecco's Modified Eagle Medium (DMEM) supplemented with Glutamax and […] sodium pyruvate (Cat# 10569-010). The medium was further supplemented with 10% (v/v) FBS (Cat# 16000-036) and 1% (v/v) penicillin/streptomycin (Cat# 15140-122). All reagents were from Invitrogen.
Four million cured Huh7 cells were transfected with 10 μg of in vitro transcribed RNA using electroporation. Cells were then resuspended in 12 ml of DMEM containing 5% FBS and plated in 96-well plate at 28,800 cells/well (in 90 μl final volume) Inhibitors were added 24 hours post-transfection in 3 fold dilutions at a final DMSO concentration of 1% and firefly luciferase reporter signal was read 72 hours after addition of inhibitors using the Luciferase Assay system (Promega, cat #E1501). The IC50 values were assessed as the inhibitor concentration at which a 50% reduction in the level of firefly luciferase reporter was observed as compared to the level of firefly luciferase signal without the addition of compounds. […]

CCC[C@H](NC(=O)[C@@H]1[C@H]2CCC[C@H]2CN1C(=O)[C@@H](NC(=O)[C@@H](NC(=O)c1cnccn1)C1CCCCC1)C(C)(C)C)C(=O)C(=O)NC1CC1 [VX-950]
pIC50 [1]: 6.60 | pIC50 ([2]; patient isolate 34): 6.57 | pIC50 ([2]; patient isolate 98): 6.69 | pIC50 ([2]; patient isolate 5903): 7.01 | pIC50 ([2]; patient isolate 34026): 7.32 | pIC50 ([2]; patient isolate 52620): 7.04 | pIC50 ([2]; patient isolate 61793): 6.42 | pIC50 ([2]; patient isolate 66200): 6.48 | pIC50 ([2]; patient isolate 73837-2): 6.64 | pIC50 ([2]; patient isolate 135635): 6.40 | pIC50 ([2]; patient isolate 135640): 6.41 | pIC50 ([2]; patient isolate 135641): 6.76 | pIC50 ([2]; patient isolate 135649): 6.97 | pIC50 ([2]; patient isolate RO256): 7.03
